Consider 17 compounds from patent publication US7786141B2 (Vertex Pharmaceuticals Incorporated, priority 2004, dated 2010).

One test has as its target T1, M1 muscarinic receptor (Homo sapiens, UniProt P11229).
T1 construct: expressed in transfected cells; host or cells: CHO (M1-CHO)
T1 sequence (P11229 1-460): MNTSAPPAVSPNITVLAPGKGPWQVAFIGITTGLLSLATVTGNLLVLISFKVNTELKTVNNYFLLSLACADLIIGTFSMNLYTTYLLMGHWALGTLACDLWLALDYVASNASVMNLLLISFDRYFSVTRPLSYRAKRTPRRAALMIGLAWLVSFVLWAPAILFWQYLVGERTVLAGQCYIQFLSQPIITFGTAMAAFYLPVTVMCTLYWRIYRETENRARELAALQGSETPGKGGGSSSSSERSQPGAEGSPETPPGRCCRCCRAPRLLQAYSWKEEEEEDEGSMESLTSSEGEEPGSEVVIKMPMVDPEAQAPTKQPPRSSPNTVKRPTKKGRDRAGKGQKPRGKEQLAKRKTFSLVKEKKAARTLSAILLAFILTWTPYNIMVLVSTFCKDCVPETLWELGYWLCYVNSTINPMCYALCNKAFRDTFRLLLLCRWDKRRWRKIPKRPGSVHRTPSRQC
Kind of test: Functional mobilization of intracellular calcium (FLIPR) in M1-CHO cells. Particulars: M1 receptor, calcium mobilization; for Emax: read-out: M1 Efficacy. Format: cell-based. How it is done: (§1) Functional Mobilization of Intracellular Calcium to Determine Muscarinic Receptor Activity:
(§2) CHO cells expressing muscarinic receptors (M1 to M5) are grown as monolayers in tissue culture flasks at 37° C. in a humidified atmosphere containing 5% CO2 and passaged every 3-5 days. The growth media is Dulbecco's modified eagles medium (DMEM, Gibco Cat# 12430-054), containing 25 mM Hepes and supplemented with Fetal Bovine Serum (Hyclone, cat# SH30071.03), 0.1 mM of MEM non-essential amino acids (GIBCO, Cat# 11140-050), 1 mM MEM Sodium Pyruvate (GIBCO Cat# 11360-070) and 100 units/ml of Penicillin G and 100 μg/ml of Streptomycin (GIBCO Cat# 15140-122). The recombinant muscarinic receptor cell lines are grown under antibiotic pressure with media containing 25 μg/ml zeocin and 500 μg/ml G418 (M1-CHO), 4 μg/ml puromycin, 50 μg/ml zeocin and 2.5 μg/ml blasticidin (M2 and M4-CHO) or 50 μg/ml zeocin and 4 μg/ml puromycin (M3 and M5-CHO).
(§3) Cells are harvested at 80-90% confluence using Versene (GIBCO Cat# 15040-066), collected by centrifugation and seeded 18-24 hrs prior to running the calcium assay at a density of 5,000 cells/well in back-walled, clear-bottomed 384-well plates (BD Biocoat, poly-D-lysine, Cat#356663). The day of the experiment, the cells are washed with a plate washer (Bioteck Instruments, ELX 405) using bath 1 buffer (140-mM NaCl, 4.5-mM KCl, 2-mM CaCl2, 1-mM MgCl2, 10-mM Hepes-Na, 10-mM Glucose, pH 7.4, with NaOH) containing 1 mM Probenecid. Next, the calcium dye Fluo-3 (25 μl/well of Fluo-3 AM at 4 μM, Molecular Probes F-1241, in Bath 1 buffer containing 1 mM Probenecid) is added to the 25 μl of Bath 1 remaining in each well after the plate wash and the dye is loaded at 37° C. in the tissue culture incubator for 60-90 min. The fluorescent dye is removed using the plate washer with Bath 1 containing 1 mM Probenecid, leaving 25 μl/well of this solution after the wash. Alternatively, cells can be loaded with the calcium indicator from Molecular Devices (Calcium 3 Assay Reagents, Cat # R7181) adding 5 μl of a 5× solution dye in Bath 1 containing 1 mM Probenecid (10 ml per dye flask cat# R7182 to generate a solution 20×) to 20 μl of the same buffer. After loading for 60 min, the experiment can be run without having to remove the dye.
(§4) Compounds are prepared at a 2× fold concentration in a 96-well plate (round bottom, Costar Corning cat# 3656), by reconstituting the pre-spotted compounds in bath 1 containing 1 mM probenecid. The final concentration DMSO is 0.5%, and the amount of DMSO is normalized across the assay plate. To determine an agonist action of the compounds on muscarinic receptors, the reconstituted compounds are added (25 μl compound/well) to the cell assay plate (containing 25 μl/well) using the multi-channel robotic system of the FLIPR 3 Instrument (Molecular Devices, Sunnyvale, Calif.). To determine a functional inhibitory action of the compounds on muscarinic receptors, the reconstituted compounds are added (25 μl compound/well) to the assay plate and pre-incubated for 15 min prior to adding 25 μl of Carbachol at 3× the EC80 for each muscarinic subtype. Alternatively, the compounds can be co-applied simultaneously with the agonist. In both assay modes, the fluorescence is recorded for 60 sec (excitation wavelength is […] and emission wavelength 540 nm) using the FLIPR 3 instrument.
(§5) The potency, efficacy and selectivity of the muscarinic compounds were evaluated by screening the compound activity across the whole family (M1 to M5 cells). Compounds were also screened for activity on other proteins such as other GPCRs and ion channels to determine selectivity on M4 receptors.
On the technique in general: Calcium flux is commonly read through the fluorescence of an indicator in the cells.

A further test has as its target T2, M4 muscarinic receptor (Homo sapiens, UniProt P08173).
T2 construct: expressed in transfected cells; host or cells: CHO (M4-CHO)
T2 sequence (P08173 1-479): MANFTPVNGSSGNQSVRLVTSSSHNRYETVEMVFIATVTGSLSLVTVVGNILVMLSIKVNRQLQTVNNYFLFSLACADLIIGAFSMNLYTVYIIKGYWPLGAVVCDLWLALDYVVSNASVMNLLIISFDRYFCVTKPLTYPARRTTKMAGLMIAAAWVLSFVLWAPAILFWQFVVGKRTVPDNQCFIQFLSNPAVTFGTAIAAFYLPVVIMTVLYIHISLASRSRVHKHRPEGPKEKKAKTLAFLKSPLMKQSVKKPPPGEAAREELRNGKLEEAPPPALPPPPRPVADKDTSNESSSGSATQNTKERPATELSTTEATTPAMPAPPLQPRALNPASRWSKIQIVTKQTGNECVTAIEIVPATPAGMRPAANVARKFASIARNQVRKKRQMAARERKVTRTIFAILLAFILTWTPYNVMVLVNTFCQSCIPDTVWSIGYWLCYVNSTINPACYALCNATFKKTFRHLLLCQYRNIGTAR
Kind of test: Functional mobilization of intracellular calcium (FLIPR) in M4-CHO cells. The class given is cell-based. Particulars: M4 receptor, calcium mobilization; for Emax: read-out: M4 Efficacy. Here is the method:
as §1, §2, §3, §4, §5

SMILES strings stand for the structures.

On to `Clc1ccc2c(c1)C1(CCN([C@H]3C[C@@H]4CC[C@@H]3C4)CC1)CO2` [compound 1], for which, on M1 muscarinic receptor, the “M1 Activity” value was “xx (activity was measured to be between 0.1 μM and 1.0 μM)”; the Emax is 65 to 85%. Besides, on M4 muscarinic receptor, the “M4 Activity” value is “xx (activity was measured to be between 0.1 μM and 1.0 μM)”; the Emax was above 85%.
For the compound `CC(=O)NC1CC2(CCN(C3CCCCC3)CC2)c2ccccc21` (centres unmarked) [compound 2], at M1 muscarinic receptor, the “M1 Activity” value is on record as “x (activity was measured to be greater than 1.0 μM)” and the Emax is below 65%. On M4 muscarinic receptor, the “M4 Activity” value is “x (activity was measured to be greater than 1.0 μM)” and the Emax is below 65%.
`Cc1ccc2c(c1)C1(CCN(CC3CC4C=CC3C4)CC1)CN2` (centres unmarked) [compound 3]: at M1 muscarinic receptor, the “M1 Activity” value is listed as “xxx (activity was measured to be less than 0.1 μM)” and the Emax was 65 to 85%. In addition, at M4 muscarinic receptor, the “M4 Activity” value was “xx (activity was measured to be between 0.1 μM and 1.0 μM)”; the Emax lay in the range of 65 to 85%.
As to `CC(=O)N[C@H]1CC2(CCN(C3C4CC5CC(C4)CC3C5)CC2)c2ccccc21` (some centres unmarked) [compound 4], on M1 muscarinic receptor, the “M1 Activity” value is “xxx (activity was measured to be less than 0.1 μM)” and the Emax was below 65%. On M4 muscarinic receptor, the “M4 Activity” value is “x (activity was measured to be greater than 1.0 μM)” and the Emax was below 65%.
Regarding `Clc1ccc2c(c1)C1(CCN(C3CCCCC3)CC1)CO2` [compound 5], at M1 muscarinic receptor, the “M1 Activity” value is reported as “xxx (activity was measured to be less than 0.1 μM)” and the Emax is 65 to 85%. On M4 muscarinic receptor, the “M4 Activity” value was “xxx (activity was measured to be less than 0.1 μM)” and the Emax is above 85%.
Regarding `CCOC(=O)N1CCC(N2CCC3(CC2)CN(C(C)=O)c2ccc(-c4cccc(C)c4)cc23)CC1` [compound 6], on M1 muscarinic receptor, the “M1 Activity” value is “xxx (activity was measured to be less than 0.1 μM)” and the Emax is 65 to 85%. Moreover, at M4 muscarinic receptor, the “M4 Activity” value is “xx (activity was measured to be between 0.1 μM and 1.0 μM)”; the Emax lay within 65 to 85%.
As for `O=C1Nc2ccccc2C12CCN(CC1CC3C=CC1C3)CC2` (centres unmarked) [compound 7], at M1 muscarinic receptor, the “M1 Activity” value is “xxx (activity was measured to be less than 0.1 μM)” and the Emax lay within 65 to 85%. Also, at M4 muscarinic receptor, the “M4 Activity” value is “xx (activity was measured to be between 0.1 μM and 1.0 μM)”; the Emax is above 85%.
In the case of `CC(=O)NC1CC2(CCN(C3CC4CCC(C4)C3)CC2)c2ccccc21` (centres unmarked) [compound 8], at M1 muscarinic receptor, the “M1 Activity” value is “xx (activity was measured to be between 0.1 μM and 1.0 μM)”; the Emax was below 65%. Moreover, on M4 muscarinic receptor, the “M4 Activity” value was “xx (activity was measured to be between 0.1 μM and 1.0 μM)”; the Emax was 65 to 85%.
Consider `CCOC(=O)N1C2CCC1CC(N1CCC3(CC1)CN(C(C)=O)c1ccc(C)cc13)C2` (centres unmarked) [compound 9], for which, at M1 muscarinic receptor, the “M1 Activity” value was “xxx (activity was measured to be less than 0.1 μM)” and the Emax is 65 to 85%. For the same compound, on M4 muscarinic receptor, the “M4 Activity” value was “x (activity was measured to be greater than 1.0 μM)” and the Emax lay within 65 to 85%.
`CCOC(=O)N1CCC(N2CCC3(CC2)CN(C(C)=O)c2ccc(-c4ccc(NC(C)=O)cc4)cc23)CC1` [compound 10]: on M1 muscarinic receptor, the “M1 Activity” value was “xx (activity was measured to be between 0.1 μM and 1.0 μM)”; the Emax lay in the range of 65 to 85%. Moreover, on M4 muscarinic receptor, the “M4 Activity” value was “xx (activity was measured to be between 0.1 μM and 1.0 μM)”; the Emax fell in the range of 65 to 85%.
As to `C=Cc1ccc2c(c1)C1(CCN(C3CCN(C(=O)OCC)CC3)CC1)CN2C(C)=O` [compound 11], at M1 muscarinic receptor, the “M1 Activity” value is “x (activity was measured to be greater than 1.0 μM)” and the Emax is below 65%. On M4 muscarinic receptor, the “M4 Activity” value is reported as “x (activity was measured to be greater than 1.0 μM)” and the Emax is below 65%.
With `CCC(=O)CCN1CC2(CCN(C[C@@H]3C[C@H]4C=C[C@H]3C4)CC2)c2cc(F)ccc21` [compound 12], at M1 muscarinic receptor, the “M1 Activity” value is recorded as “xxx (activity was measured to be less than 0.1 μM)” and the Emax is below 65%. At M4 muscarinic receptor, the “M4 Activity” value was “xx (activity was measured to be between 0.1 μM and 1.0 μM)”; the Emax was below 65%.
With `Fc1ccc2c(c1)C1(CCN(CC3CCC4CCC3C4)CC1)CN2` (centres unmarked) [compound 13], at M1 muscarinic receptor, the “M1 Activity” value is “xx (activity was measured to be between 0.1 μM and 1.0 μM)”; the Emax was 65 to 85%. Also, at M4 muscarinic receptor, the “M4 Activity” value is “x (activity was measured to be greater than 1.0 μM)” and the Emax was below 65%.
For `CC(=O)N1CC2(CCN(CC3CCN(C(=O)O[C@@H]4CCOC4)CC3)CC2)c2cc(F)ccc21` [compound 14], at M1 muscarinic receptor, the “M1 Activity” value was “xxx (activity was measured to be less than 0.1 μM)” and the Emax is 65 to 85%. Further, on M4 muscarinic receptor, the “M4 Activity” value is on record as “xxx (activity was measured to be less than 0.1 μM)” and the Emax was above 85%.
`CCCC1CCC(N2CCC3(CC2)C[C@H](NC(C)=O)c2ccccc23)CC1` (some centres unmarked) [compound 15]: at M1 muscarinic receptor, the “M1 Activity” value was “xxx (activity was measured to be less than 0.1 μM)” and the Emax was 65 to 85%. Moreover, at M4 muscarinic receptor, the “M4 Activity” value is “xx (activity was measured to be between 0.1 μM and 1.0 μM)”; the Emax was above 85%.
In the case of `CS(=O)(=O)N1CC2(CCN(C3CC4CCC(C3)N4C(=O)O[C@@H]3CCOC3)CC2)c2cc(F)ccc21` (some centres unmarked) [compound 16], on M1 muscarinic receptor, the “M1 Activity” value is given as “xxx (activity was measured to be less than 0.1 μM)” and the Emax fell in the range of 65 to 85%. On M4 muscarinic receptor, the “M4 Activity” value is reported as “xxx (activity was measured to be less than 0.1 μM)” and the Emax lay in the range of 65 to 85%.
`CCOC(=O)N1CCC(N2CCC3(CC2)CN(C(=O)C2CCCC2)c2ccc(F)cc23)CC1` [compound 17]: at M1 muscarinic receptor, the “M1 Activity” value was “xx (activity was measured to be between 0.1 μM and 1.0 μM)”; the Emax is below 65%. In addition, at M4 muscarinic receptor, the “M4 Activity” value was “xx (activity was measured to be between 0.1 μM and 1.0 μM)”; the Emax was in the range of 65 to 85%.
